Data from patent publication US20100081200A1, “FORMULATIONS AND METHODS FOR CULTURING STEM CELLS” (priority 2007, published 2010).

Experiments:
[1] = tested on: hESCs (Regea 07/046, HS401); test: Retinol: proliferation and expression of stem cell markers; type: cell-based, human
Protocol: FIG. 10A) Bright-field microscopic image of hESCs (Regea 07/046) at day 3 cultured in the present culture medium without retinol for 5 passages. FIG. 10B) Bright-field microscopic image of hESCs (Regea 07/046) at day 3 cultured in the present culture medium containing 2.0 μM retinol for 5 passages. The size of the colonies is larger in the presence of retinol when compared to the colonies cultured without retinol. Scale bar 500 μm. FIGS. 10C-D) Fluorescent microscopic image of hESCs (HS401) cultured in the present culture medium containing 2.0 μM retinol for 12 passages showing positive expression of
Nanog and TRA-1-81. Insets represent DAPI staining. Scale bar 200 μm. FIG. 10E) Cell proliferation analysis of hESC line Regea 07/046 cultured in the present culture medium without and in the presence of 0.5, 2.0 and 3.5 μM retinol for 10 passages. FIG. 10F) Quantitative RT-PCR analysis of Oct4, GDF3, DNMT3B, TDGF1 and Nanog expression in hESC line Regea 07/046 cultured in the present culture medium without and in the presence of 0.5, 2.0 and 3.5 μM retinol for 10 passages.
Retinol was selected to be further evaluated in the maintenance of undifferentiated hESCs. […] In the presence of 2.0 μM retinol, the growth of the colonies started earlier and already at day 3 the size of the colonies was bigger (FIG. 10A-10B).

[2] = tested on: hESCs (HS401 cell line); test: Lipids and lipid derivatives: visual evaluation of morphology, size and thickness of undifferentiated colonies; type: cell-based, human; settings: for morphology of the undifferentiated colonies (in words): in both hES medium and the present culture medium
Description: (§1) FIGS. 9A-9B show the morphology and differentiation stage of hESCs cultured in the present culture medium and in the presence of lipids and lipid derivatives. UD, PD and DIFF represent undifferentiated, partly differentiated and differentiated hESC colonies, respectively. FIG. 9A) HS401 cell line cultured in the present culture medium supplemented with different lipids and lipid derivatives. FIG. 9B) HS401 cell line cultured in control hES medium supplemented with different lipids and lipid derivatives.
Various lipids and lipid derivatives were tested in the culture medium (RegES) according to some embodiments of the present invention and in the conventional hES culture medium containing KO-SR (Knockout serum replacement, Invitrogen). General morphology, as well as the size and thickness of the undifferentiated colonies were evaluated before each passaging based on visual perceptions (Table 7).

[3] = tested on: hESC colonies (HS401 cell line); test: Lipids and lipid derivatives: classification of hESC colonies as undifferentiated, partly differentiated, differentiated; type: cell-based, human
Description: as §1
Furthermore, the hESC colonies were classified into three categories; undifferentiated, partly differentiated and differentiated. Number of each colony type was calculated before each passaging. Later, a percentage value for each colony type of the total amount of colonies was calculated (FIG. 9).

[4] = tested on: human embryonic stem cells; test: Effect of different vitamins on the undifferentiated growth of human embryonic stem cells; type: cell-based; settings: for effect on undifferentiated growth / number of undifferentiated colonies (in words): retinol 20 μM, nicotinamide 5 mM and 10 mM, Vitamin Mix 1%
Protocol: The effect of different vitamins on the undifferentiated growth of human embryonic stem cells was tested by providing retinol (20 μM), nicotinamide (5 mM and 10 mM) or commercial Vitamin Mix (1%) containing nicotinamide but not retinol (MEM Vitamin Solution (100x), cat. No. 11120-037, provided by Gibco/Invitrogen) to human embryonic stem cells (Table 1). […] Vitamin Mix had no effect on the undifferentiated growth of embryonic stem cells.
Accordingly, the serum replacement according to some embodiments of the present invention is a xeno-free formulation comprising at least retinol. In some embodiments, the concentration range of retinol in the serum replacement is such that the final culture medium comprises from about 0.25 mg/l to about 0.5 mg/l, more specifically about 0.57 mg/l retinol. Accordingly, in embodiments wherein basal medium is to be supplemented with 20% (vol/vol) serum replacement, said serum replacement comprises retinol from about 1.25 mg/l to about 2.5 mg/l, more specifically about 2.85 mg/l.

[5] = tested on: hESC line Regea 07/046; test: Activin A: proliferation assay, FACS and qRT-PCR of pluripotency markers; type: cell-based, human
Protocol: FIG. 11B) Quantitative RT-PCR analysis of Nanog, Oct4, GDF3, DNMT3B, GABRB3 and GDF3 expression in hESC line Regea 07/046 cultured in the present culture medium without and in the presence of 5 ng/ml and 10 ng/ml Activin A and hES control medium for 10 passages. FIG. 11C) FACS analysis of SSEA4 and TRA-1-60 stem cell markers of hESC line Regea 07/046 cultured in the present culture medium without and in the presence of 5 ng/ml and 10 ng/ml Activin A and hES control medium for 10 passages.

[6] = tested on: embryonic stem cell colonies; test: Effect of fetuin and α-fetoprotein on growth rate and size of embryonic stem cell colonies; type: cell-based; settings: human serum albumin 10 mg/ml
Protocol: All formulations shown contained human serum albumin at a concentration of 10 mg/ml.
The composition of the formulation according to this embodiment of the present invention was further optimized as described above in Table 2.

[7] = in hES culture medium, compared to control hES medium
[8] = in the present culture medium, compared to control hES or Albumax-RegES medium

CC1=C(/C=C/C(C)=C/C=C/C(C)=C/CO)C(C)(C)CCC1 [Retinol, retinol]
Nanog relative expression level ([1]; 2.0 μM and 3.5 μM, qRT-PCR): over twentyfold
proliferation rate ([1]; 2.0 μM or 3.5 μM, compared to without retinol or 0.5 μM): almost two-fold
proliferation of hESCs and expression of hESC specific markers ([1]; 2.0 μM or above): improved the proliferation of hESCs as well as induced the expression of hESC specific markers
size of the colonies ([1]; 2.0 μM, day 3): bigger
morphology and number of undifferentiated colonies ([1]; 0.1-0.5 μM): not effective
immunocytochemical staining of Nanog and TRA-1-81 ([1]; cultured in the presence of retinol): showed expression of stem cell markers Nanog and TRA-1-81
morphology of the undifferentiated colonies (in words) [2]: improved the morphology
number of undifferentiated and differentiated colonies [3, 7]: number of undifferentiated colonies increased and the number of differentiated colonies decreased
number of undifferentiated and differentiated colonies [3, 8]: number of undifferentiated colonies increased and the number of differentiated colonies decreased
maintaining stem cells in an undifferentiated state ([4]; 2 μM): effective
effect on undifferentiated growth / number of undifferentiated colonies (in words) [4]: increased the number of undifferentiated colonies considerably

NC(=O)c1cccnc1 [Nicotinamide, nicotinamide]
effect on undifferentiated growth / number of undifferentiated colonies (in words) [4]: promoting their differentiation

CCCCCC/C=C\CCCCCCCC(=O)O [Palmitoleic acid]
morphology of the undifferentiated colonies (in words) [2]: improved the morphology
number of undifferentiated and differentiated colonies [3, 8]: number of undifferentiated colonies increased and the number of differentiated colonies decreased

CCCCC/C=C\C/C=C\C/C=C\C/C=C\CCCC(=O)O [Arachidonic acid]
number of undifferentiated and differentiated colonies [3, 7]: number of undifferentiated colonies increased and the number of differentiated colonies decreased

CCCCCCCCCCCCCCCCCC(=O)O [Stearic acid]
morphology (in words) ([2]; in hES culture medium): poor morphology and/or excess differentiation
morphology (in words) ([2]; in the present culture medium): satisfying morphology
number of undifferentiated and differentiated colonies [3, 8]: number of undifferentiated colonies increased and the number of differentiated colonies decreased

CCCCC[C@H](O)/C=C/[C@H]1[C@H](O)CC(=O)[C@@H]1C/C=C\CCCC(=O)O [Prostaglandin E2]
Morphology ([2]; RegES medium, 50 ng/ml): − (excess differentiation of the colonies, poor morphology)
Morphology ([2]; hES medium, 50 ng/ml): + (poor morphology, uneven edges in the colonies, thin and/or small colonies)

Phosphatidylcholine
Morphology ([2]; RegES medium, 2.5 μg/ml): − (excess differentiation of the colonies, poor morphology)
Morphology ([2]; hES medium, 2.5 μg/ml): ++
number of undifferentiated and differentiated colonies [3, 7]: number of undifferentiated colonies increased and the number of differentiated colonies decreased

CC(C)NCC(O)c1ccc(O)c(O)c1 (racemic) [DL-isoproterenol, reference compound]
Morphology ([2]; RegES medium, 0.1 mg/ml): ++
Morphology ([2]; hES medium, 0.1 mg/ml): + (poor morphology, uneven edges in the colonies, thin and/or small colonies)
morphology (in words) ([2]; in hES culture medium): poor morphology and/or excess differentiation
morphology (in words) ([2]; in the present culture medium): satisfying morphology
number of undifferentiated and differentiated colonies [3, 8]: number of undifferentiated colonies increased and the number of differentiated colonies decreased

Activin A: Activin A, growth factor supplement of the culture medium
proliferation rate ([5]; 5 or 10 ng/ml in the present culture medium, compared to without Activin A): almost two-fold
expression of pluripotency supporting markers ([5]; FACS and qRT-PCR, transcriptional and translational level): increased the expression

CC(C)CCC[C@@H](C)[C@H]1CC[C@H]2[C@@H]3CC=C4C[C@@H](O)CC[C@]4(C)[C@H]3CC[C@]12C [Cholesterol]
number of undifferentiated and differentiated colonies [3, 7]: number of undifferentiated colonies increased and the number of differentiated colonies decreased

CCCCC/C=C\C/C=C\C/C=C\CCCCC(=O)O [Gamma-linoleic acid]
Morphology ([2]; RegES medium, 2.5 μg/ml): − (excess differentiation of the colonies, poor morphology)
Morphology ([2]; hES medium, 2.5 μg/ml): ++

CCCCC/C=C\C/C=C\CCCCCCCC(=O)O [Linoleic acid]
morphology of the undifferentiated colonies (in words) [2]: improved the morphology
number of undifferentiated and differentiated colonies [3, 8]: number of undifferentiated colonies increased and the number of differentiated colonies decreased

CC/C=C\C/C=C\C/C=C\CCCCCCCC(=O)O [Alfa-linoleic acid]
Morphology ([2]; RegES medium, 5 μg/ml): −/− (excess differentiation of the colonies, poor morphology)
Morphology ([2]; hES medium, 5 μg/ml): −/− (excess differentiation of the colonies, poor morphology)

Phosphatidylethanolamine
Morphology ([2]; RegES medium, 5 μg/ml): ++
Morphology ([2]; hES medium, 5 μg/ml): − (excess differentiation of the colonies, poor morphology)
morphology (in words) ([2]; in hES culture medium): poor morphology and/or excess differentiation
morphology (in words) ([2]; in the present culture medium): satisfying morphology

CCCCC[C@H](O)/C=C/[C@@H]1[C@@H](C/C=C\CCCC(=O)O)[C@@H](O)C[C@H]1O [Prostaglandin F2]
Morphology ([2]; RegES medium, 50 ng/ml): ++
Morphology ([2]; hES medium, 50 ng/ml): − (excess differentiation of the colonies, poor morphology)
morphology (in words) ([2]; in hES culture medium): poor morphology and/or excess differentiation
morphology (in words) ([2]; in the present culture medium): satisfying morphology

Conjugated linoleic acid
Morphology ([2]; RegES medium, 5 μg/ml): ++
Morphology ([2]; hES medium, 5 μg/ml): +++ (nice morphology, even, thick and big colonies)
morphology of the undifferentiated colonies (in words) [2]: improved the morphology
number of undifferentiated and differentiated colonies [3, 7]: number of undifferentiated colonies increased and the number of differentiated colonies decreased
number of undifferentiated and differentiated colonies [3, 8]: number of undifferentiated colonies increased and the number of differentiated colonies decreased

Lysophosphatidylcholine
Morphology ([2]; RegES medium, 5 μg/ml): ++
Morphology ([2]; hES medium, 5 μg/ml): − (excess differentiation of the colonies, poor morphology)
morphology (in words) ([2]; in hES culture medium): poor morphology and/or excess differentiation
morphology (in words) ([2]; in the present culture medium): satisfying morphology

B1: F: Fetuin, commercially available fetal carrier protein (protein, UniProt P12763 19-359, looked up)
Alpha-2-HS-glycoprotein: IPLDPVAGYKEPACDDPDTEQAALAAVDYINKHLPRGYKHTLNQIDSVKVWPRRPTGEVYDIEIDTLETTCHVLDPTPLANCSVRQQTQHAVEGDCDIHVLKQDGQFSVLFTKCDSSPDSAEDVRKLCPDCPLLAPLNDSRVVHAVEVALATFNAESNGSYLQLVEISRAQFVPLPVSVSVEFAVAATDCIAKEVVDPTKCNLLAEKQYGFCKGSVIQKALGGEDVRVTCTLFQTQPVIPQPQPDGAEAEAPSAVPDAAGPTPSAAGPPVASVVVGPSVVAVPLPLHRAHYDLRHTFSGVASVESSSGEAFHVGKTPIVGQPSIPGGPVRLCPGRIRYFKI
concentration that increased colony size and growth rate the most [6]: 0.1 mg/mL
